Reference: patent US12667584B2, “Adenosine analog and its use in regulating the circadian clock” (NATIONAL INSTITUTE OF BIOLOGICAL SCIENCES, BEIJING, priority 2017, dated 2026)
“Also recorded” adds a separate entry of the source.

Legend:
[1] = test system: Per2::LUC adult murine fibroblasts; experiment: Time-of-admission phase shift and amplitude in Per2::LUC adult murine fibroblasts; type: cell-based, mouse
Experimental: In above investigation, we found cordycepin (cordycepin-like nucleosides) shift the circadian phase, therefore it could be seemed as a circadian time giver (zeitgeiber). One prominent character of zeitgeiber is phase dependent function. Therefore, we further tested whether cordycepin also has the character. We use both transcriptional reporter (Per2:luc U2OS cells) translational reporter (Per2::LUC adult murine fibroblasts) model to investigate this character. The two reporter were seeded in 3.5 cm dish, transferred into lumicycle, and treated with cordycepin (100 μM in Per2:luc U2OS cells and 25 μM in Per2::LUC adult murine fibroblasts) every 2 hours from CT 0 to CT 24. 3 days after treatment and data analysis, we found in both reporter cells, cordycepin show highly “time-of-admission” dependent phase-change, 12 h phase shift when applied at CT10 and nearly 0 h phase shift when applied at CT 20 (F). […] To test this, we treated nearly damped Per2::LUC adult murine fibroblasts at CT 20 with DMSO or 25 μM cordycepin.

liver culture slice = experiment: Ex vivo liver slice culture from Per2::LUC mice, lumicycle; type: cell-based, mouse; settings: 100 μM at Per2::LUC peak
Excerpt: (§1) Tissue culture, drug treatment and Real-Time Monitoring of Circadian Oscillations: 8 week-old male mPer2 Luciferase knockin mice were Sacrificed cervical dislocation. Then wipe the skin and neck with cotton containing 70% ethanol in a sterile hood. For SCN slice culture, firstly remove the eye balls from the head with scissors, decapitate and cut the skin. Then open the skull, remove all bone until the olfactory bulbs can be seen, cut the optic nerve between the olfactory bulbs and the hemispheres, and finally harvest the whole brain into ice cold HBSS. Trim the brain in HBSS by removing the cerebellum and olfactory bulbs. Attach the brain to a sample tray by glue with the rostral tip upwards and ventral surface closest to the cutting blade, then immediately fill the tray with ice cold HBSS and set the tray to the vibratome. Set the vibratome frequency at the maximum and the speed to the medium. To reach the SCN area quickly, the start cutting off thicker sections should be 500-800 μm. Reduce the sections thicker to 100 μm when the optic chiasm becomes wider. When the two SCN nuclei start to appear, collect the slice with transfer pipettes and check slices under dissecting microscope. […] Data was extract and analyzed with LumiCycle Analysis software. […]

SCN culture slice = experiment: Ex vivo SCN slice culture from Per2::LUC mice, lumicycle; type: cell-based, mouse
Excerpt: as §1

PER2 locus = experiment: ChIP-qPCR analysis for the PER2 locus; type: cell-based
Experimental: Human and mouse circadian oscillators are driven by interlocked transcriptional and translational feedback loop. Bmal1 and Clock are transcriptional factors and function as positive arm to active negative arm genes transcription, including Per and Cry. Per and Cry are transcriptional repressor and feedback repress Bmal1/Clock's transcription activity thereby inhibit its own transcription. […] We also confirmed this by ChIP-qPCR experiments. Cordycepin treatment 30 min immediately release Cry1/2 and Ruvbl2 binding at Per2 gene promoter.

SMILES: Nc1ncnc2c1ncn2[C@@H]1O[C@H](CO)C[C@H]1O [Cordycepin, 3′-deoxy-adenosine]
- phase shift ([1]; 25 μM applied at CT10): 12 h
- phase shift ([1]; 25 μM applied at CT 20): ~0 h
- amplitude ([1]; 25 μM at CT 20, nearly damped fibroblasts): increase the amplitude
- clock phase of liver slice versus DMSO (liver culture slice): totally antiphase
- clock phase of SCN slice (SCN culture slice): significant phase-shift with lower amplitude; also recorded: totally antiphase
- binding of BMAL1 at PER2 locus (PER2 locus): remained unchanged
- binding of CRY2/RUVBL2 at PER2 locus (PER2 locus): released
